Assay results reported in paper PMC5770468, “Cardiac glycoside/aglycones inhibit HIV-1 gene expression by a mechanism requiring MEK1/2-ERK1/2 signaling” (Scientific Reports, 2018).

Key:
[1] = system: HeLa rtTA-HIV(Gag-GFP) cells; type: cell-based, human; details: 220 nM
Method: Using the same methods and conditions described for HeLa rtTA-HIV-ΔMls cells, HeLa rtTA-HIV(Gag-GFP) cells were seeded in 48-/12-well plates and pretreated with/without pathway inhibitor prior to treatment with drug/compounds and Dox. Equal concentrations of DMSO were present in each experiment. HIV-1 gene expression was determined by detecting Gag-GFP fluorescence in cells by plate scans using a Typhoon Imager 9400 (Amersham Biosciences) or Typhoon FLA 9400 (GE) on ImageQuant, cell lysates by SDS-PAGE captured on ChemiDoc MP, or cell lysates by p24^CA ELISA. Before quantification, cells were washed with warm PBS and either scanned live (and harvested for protein analyses) or fixed in 3.7% paraformaldehyde/formaldehyde-PBS for subsequent analyses. Data from cell scans and SDS-PAGEs were quantitated using ImageJ and Image Lab software, respectively. To determine which pathway signal was used by a CS to inhibit HIV-1 gene expression, cells treated with CS were pre-treated with a specific pathway inhibitor and monitored for recovery of Gag-GFP expression. […] In parallel, the cell viability of each pathway inhibitor and CS treatment combination were monitored by cell density staining of fixed cells with 2% methylene blue (BioBasic, #MB0342) in 50% ethanol and read at OD664 on a TECAN Infinite® 200 PRO or Biotek Cytation5. […]

HIV-infected PBMCs = assay: Ex vivo therapeutic index (CC50/IC50) in HIV-infected PBMCs; type: cell-based, human; details: CC50/IC50, day 14, HIV-infected PBMCs
From the text: Without median toxic dose (TD50) and half-maximal effective concentration (EC50) data available to calculate TIs (in vivo) from HIV patients treated with CSs, we determined the following TIs for each cell type treated with a CS (summarized in Supplementary Table S1): in vitro TIs from HeLa rtTA-HIV-ΔMls cells using CC20/IC50 (instead of CC50/IC50), in vitro TIs from 24ST1NLESG cells using CC50/IC50, and ex vivo TIs from HIV-infected PBMCs using CC50/IC50 (at day 14 of culture approximated from available cell viability trends for CC50s of Supplementary Fig. S13 and inferred near maximal IC50s).
Supplementary Figure S13. Estimation of the approximate ex vivo therapeutic indices of several
CSs. Ex vivo TIs were calculated from CC50/IC50 from day 14 of culture of HIV-infected patient PBMCs treated with CSs. CC50s were estimated/extrapolated from data points by their trends (dashed arrows) from XTT assays of cell viability (gray circles) and their inferred near maximal IC50s estimated from results on HIV-1 p24CA (Gag) production (black circles) from Figures 2f-h and some data points published on digoxin [Wong et al. (2013). PLoS Pathog 9(3):e1003241]. […]

[2] = set-up: method as in PMID 23555254, PMID 17706876, PMID 6409639; details: cited from earlier work
clinical strains of HIV = system: clinical strains of HIV; set-up: method as in PMID 23555254, PMID 17706876; details: cited from earlier work

COc1ccc(C[C@H]2NC[C@H](O)[C@H]2OC(C)=O)cc1 [anisomycin, Anisomycin]
effect on cell density [1]: little to no effect

C[C@]12CC[C@H](O)C[C@H]1CC[C@@H]1[C@@H]2CC[C@]2(C)[C@@H](C3=CC(=O)OC3)CC[C@]12O [Digitoxigenin]
better approximate ex vivo TI than FDA-approved counterparts (HIV-infected PBMCs): ≥ 1.5 fold

C[C@H]1O[C@@H](O[C@H]2[C@@H](O)C[C@H](O[C@H]3[C@@H](O)C[C@H](O[C@H]4CC[C@@]5(C)[C@H](CC[C@@H]6[C@@H]5CC[C@]5(C)[C@@H](C7=CC(=O)OC7)CC[C@]65O)C4)O[C@@H]3C)O[C@@H]2C)C[C@H](O)[C@@H]1O [Digitoxin]
recommended serum concentration in patients treated for heart conditions [2]: 20 to 34 nM

C[C@H]1O[C@@H](O[C@H]2[C@@H](O)C[C@H](O[C@H]3[C@@H](O)C[C@H](O[C@H]4CC[C@@]5(C)[C@H](CC[C@@H]6[C@@H]5C[C@@H](O)[C@]5(C)[C@@H](C7=CC(=O)OC7)CC[C@]65O)C4)O[C@@H]3C)O[C@@H]2C)C[C@H](O)[C@@H]1O [Digoxin]
effective ex vivo concentration, fold below serum concentration of patients treated for heart conditions (digoxin) (clinical strains of HIV): 2–6 fold
